From patent US20150065440A1 (Progen Pharmaceuticals Limited, priority 2007, published 2015)
Counter-ions that a name gives are not always drawn.

How the values were obtained:
VEGF = molecular target: T1, VEGF (Homo sapiens, UniProt P15692); assay: Growth factor binding assay (SPR solution affinity), VEGF; details: HBS-EP buffer, 25° C.
T1 sequence (P15692 207-395): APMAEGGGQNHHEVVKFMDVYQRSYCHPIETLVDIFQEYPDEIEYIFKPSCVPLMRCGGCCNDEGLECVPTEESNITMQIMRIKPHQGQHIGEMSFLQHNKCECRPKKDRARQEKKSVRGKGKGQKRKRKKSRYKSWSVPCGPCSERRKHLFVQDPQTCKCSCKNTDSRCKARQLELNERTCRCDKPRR
Description: (§1) Binding affinities of compounds for the growth factors FGF-1, FGF-2 and VEGF were measured using a surface plasmon resonance (SPR) based solution affinity assay.^9 Heparin-coated sensorchips used for this assay were prepared via immobilisation of biotinylated BSA-heparin on a streptavidin-coated sensorchip, or via aldehyde coupling using either adipic acid dihydrazide or 1,4-diaminobutane.^9 For each Kd measurement, solutions were prepared containing a fixed concentration of protein and varying concentrations of the ligand in buffer. Ligands binding to FGF-1 and VEGF were measured in HBS-EP buffer (10 mM HEPES, pH 7.4, 150 mM NaCl, 3.0 mM EDTA and 0.005% (v/v) polysorbate 20), while binding to FGF-2 was measured in HBS-EP buffer containing 0.3 M NaCl. Prior to injection, samples were maintained at 4° C. to maximise protein stability. For each assay mixture, 50-200 μL of solution was injected at 5-40 μL/min and the relative binding response measured. All surface binding experiments were performed at 25° C. The surface was regenerated by injection of 40 μL of 4M NaCl at 40 μL/min, followed by injection of 40 μL of buffer at 40 μL/min.
(§2) Sensorgram data were analysed using the BIAevaluation software (BIAcore) and Kd values determined as previously described.^9 Where Kd values were measured in duplicate, the values represent the average of the duplicate measurements.

FGF-1 = FGF-1 (Homo sapiens, UniProt P05230); assay: Growth factor binding assay (SPR solution affinity), FGF-1; details: SPR, HBS-EP buffer, 25° C.; read-out: Kd FGF-1
Sequence of FGF-1 (P05230 whole entry, species assumed): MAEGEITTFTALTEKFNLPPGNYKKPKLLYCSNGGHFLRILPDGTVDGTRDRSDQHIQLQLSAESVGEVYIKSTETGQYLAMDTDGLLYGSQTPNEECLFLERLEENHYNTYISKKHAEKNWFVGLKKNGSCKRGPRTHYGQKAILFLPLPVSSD
Description: as §1, §2

FGF-2 = FGF-2 (Homo sapiens, UniProt P09038); assay: Growth factor binding assay (SPR solution affinity), FGF-2; details: SPR, HBS-EP buffer containing 0.3 M NaCl, 25° C.; read-out: Kd FGF-2
Sequence of FGF-2 (P09038 143-288, species assumed): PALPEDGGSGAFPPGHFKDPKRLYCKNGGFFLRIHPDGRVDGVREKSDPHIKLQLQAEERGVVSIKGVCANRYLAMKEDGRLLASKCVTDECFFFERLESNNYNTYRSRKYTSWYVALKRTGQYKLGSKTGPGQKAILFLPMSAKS
Description: as §1, §2

[1] = tested on: pooled normal human plasma; assay: Anticoagulant activity, APTT; details: 0.1 mg/mL in normal pooled human plasma
Description: APTT measurements were performed on a STAGO STA-Compact Coagulation Analyser using standard protocols according to the manufacturer's instructions. Unfractionated heparin (UFH) was used as a control.

[2] = tested on: normal pooled human plasma; assay: Anticoagulant activity, Heptest; details: 0.1 mg/mL in normal pooled human plasma
[3] = molecular target: T2, recombinant human heparanase (Homo sapiens, UniProt Q9Y251); assay: Heparanase inhibition assay (fondaparinux cleavage, WST-1); details: read-out: Ki Heparanase; IC50 converted into Ki; fondaparinux 100 μM, pH 5.0
T2 sequence (Q9Y251 158-543 limits assumed): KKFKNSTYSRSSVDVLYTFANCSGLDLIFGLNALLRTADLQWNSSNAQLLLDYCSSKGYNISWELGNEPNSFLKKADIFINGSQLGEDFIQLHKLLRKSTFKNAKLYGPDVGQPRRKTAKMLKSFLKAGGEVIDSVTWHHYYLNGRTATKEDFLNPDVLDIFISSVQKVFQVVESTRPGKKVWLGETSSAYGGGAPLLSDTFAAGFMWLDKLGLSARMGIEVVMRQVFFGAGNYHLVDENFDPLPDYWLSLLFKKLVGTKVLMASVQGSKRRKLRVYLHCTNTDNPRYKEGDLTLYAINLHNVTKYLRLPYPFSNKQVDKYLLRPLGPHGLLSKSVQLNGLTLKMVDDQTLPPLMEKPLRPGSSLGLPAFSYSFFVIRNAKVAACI
T2 sequence (Q9Y251 36-109 limits assumed): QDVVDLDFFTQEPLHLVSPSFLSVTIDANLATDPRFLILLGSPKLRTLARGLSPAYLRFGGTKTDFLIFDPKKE

Row | Structure (SMILES) | Kd (VEGF) | Kd (FGF-1) | Kd (FGF-2) | APTT [1] | Heptest [2] | Ki [3]
1 | CC(C)CCCC(C)C1CCC2C3CC=C4CC(OC5OC(COS(=O)(=O)O)C(OS(=O)(=O)O)C(OS(=O)(=O)O)C5OC5OC(COS(=O)(=O)O)C(OS(=O)(=O)O)C(OC6OC(COS(=O)(=O)O)C(OS(=O)(=O)O)C(OC7OC(COS(=O)(=O)O)C(OS(=O)(=O)O)C(OS(=O)(=O)O)C7OS(=O)(=O)O)C6OS(=O)(=O)O)C5OS(=O)(=O)O)CCC4(C)C3CCC12C [Compound 17, 3β-Cholesteryl 2,3,4,6-tetra-O-sodium sulfonato-α-D-mannopyranosyl-(1→3)-2,4,6-tri-O-sodium sulfonato-α-D-mannopyranosyl-(1→3)-2,4,6-tri-O-sodium sulfonato-α-D-mannopyranosyl-(1→2)-3,4,6-tri-O-sodium sulfonato-α-D-mannopyranoside] | 24 ± 6 nM | 3.2 ± 0.5 nM | – | – | – | –
2 | CCCCCCCCCCCCCCCCCC(=O)NCCCOC1OC(COS(=O)(=O)O)C(OS(=O)(=O)O)C(OS(=O)(=O)O)C1OC1OC(COS(=O)(=O)O)C(OS(=O)(=O)O)C(OC2OC(COS(=O)(=O)O)C(OS(=O)(=O)O)C(OC3OC(COS(=O)(=O)O)C(OS(=O)(=O)O)C(OS(=O)(=O)O)C3OS(=O)(=O)O)C2OS(=O)(=O)O)C1OS(=O)(=O)O [Compound 24, 3-Stearamidopropyl 2,3,4,6-tetra-O-sodium sulfonato-α-D-mannopyranosyl-(1→3)-2,4,6-tri-O-sodium sulfonato-α-D-mannopyranosyl-(1→3)-2,4,6-tri-O-sodium sulfonato-α-D-mannopyranosyl-(1→2)-3,4,6-tri-O-sodium sulfonato-α-D-mannopyranoside] | 40 ± 17 nM | 0.44 ± 0.04 nM | 108 ± 11 nM | 68.1 s | 24.5 s | 6 ± 2.1 nM
3 | CC(C)CCCC(C)C1CCC2C3CCC4CC(OC5OC(COS(=O)(=O)O)C(OS(=O)(=O)O)C(OS(=O)(=O)O)C5OC5OC(COS(=O)(=O)O)C(OS(=O)(=O)O)C(OC6OC(COS(=O)(=O)O)C(OS(=O)(=O)O)C(OC7OC(COS(=O)(=O)O)C(OS(=O)(=O)O)C(OC8OC(COS(=O)(=O)O)C(OS(=O)(=O)O)C(OS(=O)(=O)O)C8OS(=O)(=O)O)C7OS(=O)(=O)O)C6OS(=O)(=O)O)C5OS(=O)(=O)O)CCC4(C)C3CCC12C [Compound 27, 3β-Cholestanyl 2,3,4,6-tetra-O-sodium sulfonato-α-D-mannopyranosyl-(1→3)-2,4,6-tri-O-sodium sulfonato-α-D-mannopyranosyl-(1→3)-2,4,6-tri-O-sodium sulfonato-α-D-mannopyranosyl-(1→3)-2,4,6-tri-O-sodium sulfonato-α-D-mannopyranosyl-(1→2)-3,4,6-tri-O-sodium sulfonato-α-D-mannopyranoside] | 1.04 ± 0.19 nM | 0.24 ± 0.1 nM | 39 ± 6 nM | 63.3 s | 29.6 s | 5.5 ± 2.6 nM
4 | CC(C)CCCC(C)C1CCC2C3CCC4CC(OC5OC(COS(=O)(=O)O)C(OS(=O)(=O)O)C(OS(=O)(=O)O)C5OC5OC(COS(=O)(=O)O)C(OS(=O)(=O)O)C(OC6OC(COS(=O)(=O)O)C(OS(=O)(=O)O)C(OS(=O)(=O)O)C6OS(=O)(=O)O)C5OS(=O)(=O)O)CCC4(C)C3CCC12C [Compound 39, 3β-Cholestanyl 2,3,4,6-tetra-O-sodium sulfonato-α-D-mannopyranosyl-(1→3)-2,4,6-tri-O-sodium sulfonato-α-D-mannopyranosyl-(1→2)-3,4,6-tri-O-sodium sulfonato-α-D-mannopyranoside] | 319 ± 19 nM | 18.5 ± 1.8 nM | 631 ± 4 nM | 50.7 s | 27.3 s | 6.4 ± 2.5 nM
5 | CCCCCCCCCCCCCCCCCC(=O)NCCCOC1OC(COS(=O)(=O)O)C(OS(=O)(=O)O)C(OS(=O)(=O)O)C1OC1OC(COS(=O)(=O)O)C(OS(=O)(=O)O)C(OC2OC(COS(=O)(=O)O)C(OS(=O)(=O)O)C(OC3OC(COS(=O)(=O)O)C(OS(=O)(=O)O)C(OC4OC(COS(=O)(=O)O)C(OS(=O)(=O)O)C(OS(=O)(=O)O)C4OS(=O)(=O)O)C3OS(=O)(=O)O)C2OS(=O)(=O)O)C1OS(=O)(=O)O [Compound 44, 3-Stearamidopropyl 2,3,4,6-tetra-O-sodium sulfonato-α-D-mannopyranosyl-(1→3)-2,4,6-tri-O-sodium sulfonato-α-D-mannopyranosyl-(1→3)-2,4,6-tri-O-sodium sulfonato-α-D-mannopyranosyl-(1→3)-2,4,6-tri-O-sodium sulfonato-α-D-mannopyranosyl-(1→2)-3,4,6-tri-O-sodium sulfonato-α-D-mannopyranoside] | 2.7 ± 0.5 nM | 0.17 ± 0.07 nM | 80 ± 40 nM | 217.0 s | 58.5 s | 4.4 ± 1.4 nM
6 | CC(C)CCCC(C)C1CCC2C3CCC4CC(OCc5cn(CCCOC6OC(COS(=O)(=O)O)C(OS(=O)(=O)O)C(OS(=O)(=O)O)C6OC6OC(COS(=O)(=O)O)C(OS(=O)(=O)O)C(OC7OC(COS(=O)(=O)O)C(OS(=O)(=O)O)C(OS(=O)(=O)O)C7OS(=O)(=O)O)C6OS(=O)(=O)O)nn5)CCC4(C)C3CCC12C [Compound 48, 3-{4-(Cholestan-3β-yl-oxymethyl)-[1,2,3]triazol-1-yl}propyl 2,3,4,6-tetra-O-sodium sulfonato-α-D-mannopyranosyl-(1→3)-2,4,6-tri-O-sodium sulfonato-α-D-mannopyranosyl-(1→2)-3,4,6-tri-O-sodium sulfonato-α-D-mannopyranoside] | 460 ± 30 nM | 22.6 ± 1 nM | 480 ± 40 nM | 73.3 s | 33.1 s | 8.5 ± 0.14 nM
7 | CC(C)CCCC(C)C1CCC2C3CCC4CC(OC5OC(COC6OC(COS(=O)(=O)O)C(OC7OC(COS(=O)(=O)O)C(OC8OC(COS(=O)(=O)O)C(OS(=O)(=O)O)C(OS(=O)(=O)O)C8OS(=O)(=O)O)C(OS(=O)(=O)O)C7OS(=O)(=O)O)C(OS(=O)(=O)O)C6OS(=O)(=O)O)C(OS(=O)(=O)O)C(OS(=O)(=O)O)C5OS(=O)(=O)O)CCC4(C)C3CCC12C [Compound 119, 3′-Cholestanyl 2,3,4,6-tetra-O-sulfo-α-D-glucopyranosyl-(1→4)-2,3,6-tri-O-sulfo-α-D-glucopyranosyl-(1→4)-2,3,6-tri-O-sulfo-β-D-glucopyranosyl-(1→6)-2,3,4-tri-O-sulfo-α-D-mannopyranoside, tridecasodium salt] | 7.9 ± 0.7 nM | 5.9 ± 1.6 nM | 286 ± 25 nM | 57.1 s | 28.6 s | –
8 | CC(C)CCCC(C)C1CCC2C3CCC4CC(OCC(=O)NC5OC(COS(=O)(=O)O)C(OC6OC(COS(=O)(=O)O)C(OC7OC(COS(=O)(=O)O)C(OS(=O)(=O)O)C(OS(=O)(=O)O)C7OS(=O)(=O)O)C(OS(=O)(=O)O)C6OS(=O)(=O)O)C(OS(=O)(=O)O)C5OS(=O)(=O)O)CCC4(C)C3CCC12C (stereo not shown) [Compound 134] | 1080 ± 200 nM | 13 ± 3 nM | 630 ± 30 nM | – | – | –
9 | CC(C)CCCC(C)C1CCC2C3CCC4CC(OC(C(OS(=O)(=O)[O-])C(OS(=O)(=O)O)C(OC5OC(COS(=O)(=O)O)C(OC6OC(COS(=O)(=O)O)C(OC7OC(COS(=O)(=O)O)C(OS(=O)(=O)O)C(OS(=O)(=O)O)C7OS(=O)(=O)O)C(OS(=O)(=O)O)C6OS(=O)(=O)O)C(OS(=O)(=O)O)C5OS(=O)(=O)O)C(COS(=O)(=O)O)OS(=O)(=O)O)[n+]5ccccc5)CCC4(C)C3CCC12C [Compound 140, 3′-Cholestanyl 2,3,4,6-tetra-O-sulfo-α-D-glucopyranosyl-(1→4)-2,3,6-tri-O-sulfo-α-D-glucopyranosyl-(1→4)-2,3,6-tri-O-sulfo-α-D-glucopyranosyl-(1→4)-((1-pyridinium-1-yl)-2,3,5,6-tetra-O-sulfo-D-glucoside, tridecasodium salt] | 12 ± 2 nM | 1.3 ± 0.6 nM | 380 ± 40 nM | – | – | –
